Each block holds one molecule with its values, some of them ahead of it.
Tests used:
[1] = Nephelometry; type: physicochemical
[2] = biological target: δ receptor (Homo sapiens, UniProt P41143); experiment: PathHunter β-arrestin recruitment assay in CHO-OPRD1 cells; type: cell-based
[3] = test system: mouse; settings: mouse models ref 5; cited from earlier work
[4] = test system: rat; settings: rat models ref 5; cited from earlier work
[5] = biological target: T1, human δ receptor (hDOPr) (Homo sapiens, UniProt P41143); experiment: cell-based
[6] = biological target: T1, human δ receptor (hDOPr); experiment: [3H]diprenorphine radioligand; type: binding
[7] = HBSS + 25 mM HEPES and 10% FBS (β-arrestin assay buffer)
[8] = phosphate buffered saline solution, data not shown

T1 sequence (P41143 whole entry): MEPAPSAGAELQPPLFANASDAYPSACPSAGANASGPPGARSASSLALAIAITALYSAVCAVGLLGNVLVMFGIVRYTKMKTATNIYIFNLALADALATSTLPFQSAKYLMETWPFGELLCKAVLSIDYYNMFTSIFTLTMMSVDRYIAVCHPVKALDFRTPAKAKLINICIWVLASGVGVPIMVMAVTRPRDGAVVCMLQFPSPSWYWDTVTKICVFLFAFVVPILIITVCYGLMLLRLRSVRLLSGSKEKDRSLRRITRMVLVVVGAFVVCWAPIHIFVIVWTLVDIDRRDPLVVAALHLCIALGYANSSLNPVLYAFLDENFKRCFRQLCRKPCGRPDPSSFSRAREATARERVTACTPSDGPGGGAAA
δ receptor, sequence (P41143 whole entry): as above

concentrations showing particulate matter [1, 7]: above 3 μM
concentrations showing particulate matter [1, 8]: above 1 μM
Structure (SMILES): Cc1ccccc1COc1ccc(C2C3=C(CC(C)(C)CC3=O)OC3=C2C(=O)CC(C)(C)C3)cc1 [compound 2, 3,3,6,6-tetramethyl-9-(4-((2-methylbenzyl)oxy)phenyl)-3,4,5,6,7,9-hexahydro-1H-xanthene-1,8(2H)-dione]

PAM activity at the δ receptor ([2]; PAM mode, EC20 of leu-enkephalin): robust potentiation
Structure (SMILES): CC1(C)CC(=O)C2=C(C1)OC1=C(C(=O)CC(C)(C)C1)C2c1ccc(OCc2ccc(F)cc2)cc1 [compound 7]

concentrations showing particulate matter [1, 7]: above 3 μM
concentrations showing particulate matter [1, 8]: above 1 μM
Structure (SMILES): CC1(C)CC(=O)C2=C(C1)OC1=C(C(=O)CC(C)(C)C1)C2c1ccc(OCc2ccccc2Br)cc1 [compound 10, 9-(4-((2-Bromobenzyl)oxy)phenyl)-3,3,6,6-tetramethyl-3,4,5,6,7,9-hexahydro-1H-xanthene-1,8(2H)-dione]

Structure (SMILES): CCN(CC)C(=O)c1ccc(C2=CC3(CCNCC3)Oc3cccc(O)c32)cc1 [ADL5859, N,N-diethyl-4-(5-hydroxyspiro-[chromene-2,4′-piperidine]-4-yl)benzamide]
seizures [3]: no seizures
seizures [4]: no seizures

selectivity μ/δ ([2]; potency ratio of PAM mode EC50 values, β-arrestin recruitment): >33
Structure (SMILES): CC1(C)CC(=O)C2=C(C1)OC1=C(C(=O)CC(C)(C)C1)C2c1ccc(OCc2ccccc2Cl)cc1 [compound 8]

Structure (SMILES): CN1CC[C@]2(c3cccc(O)c3)Cc3nc4ccccc4cc3C[C@H]2C1 [TAN67]
Kd [5]: 3.98 nM
Ki [6]: 10 nM
affinity ratio (vehicle Ki)/(2 Ki) ([6]; effect of 2 (10 μM) on the orthosteric agonist's Ki): 3

From article PMC4703104 (Journal of medicinal chemistry, 2015)
